The values that follow are results of earlier work, collected in patent US20040208833A1, “Novel fluticasone formulations” (Elan Pharma International Ltd., priority 2003, published 2004).

Molecules are shown by their SMILES. Some results are limits rather than exact numbers.

Experiment in series [1]: not given
This is another data set of the same source.

Where [2] appears, read: oral dosing of radiolabeled drug.

`CCC(=O)O[C@]1(C(=O)SCF)[C@H](C)C[C@H]2[C@@H]3C[C@H](F)C4=CC(=O)C=C[C@]4(C)[C@@]3(F)[C@@H](O)C[C@@]21C` [Fluticasone propionate, S-fluoromethyl-6α,9-difluoro-11β-hydroxy-16α-methyl-3-oxoandrosta-1,4-diene-17β-carbothioate, 17-propionate]: the oral systemic bioavailability (oral dosing of labeled and unlabeled conventional fluticasone propionate) is under 1%. In addition, under setting [2], the absorption entry is recorded as “low”, the extraction from plasma result is given as “highly extracted from plasma” and the oral bioavailability entry is on record as “neglible”. In addition, the “solubility in 95% ethanol” value in series [1] (95% ethanol) is reported as “slightly soluble”. Moreover, the “solubility in dimethyl sulfoxide” value in series [1] (dimethyl sulfoxide) was “freely soluble”. Besides, in series [1] (dimethylformamide), the solubility in dimethylformamide result is reported as “freely soluble”. In series [1] (methanol), the solubility in methanol result is recorded as “slightly soluble”. The solubility in water entry in series [1] (water) is recorded as “practically insoluble”.
